Here are results for one molecule from ChEMBL document CHEMBL3259563, “The discovery of potent and selective non-steroidal glucocorticoid receptor modulators, suitable for inhalation” (Bioorg Med Chem Lett, 2014).

Converted amounts (≈) assume the structure as drawn. A value given as a limit tells only on which side of the number the result lay.

Data set [1] addresses T1, Mineralocorticoid receptor (Homo sapiens, UniProt P08235).
T1 sequence (P08235 whole entry): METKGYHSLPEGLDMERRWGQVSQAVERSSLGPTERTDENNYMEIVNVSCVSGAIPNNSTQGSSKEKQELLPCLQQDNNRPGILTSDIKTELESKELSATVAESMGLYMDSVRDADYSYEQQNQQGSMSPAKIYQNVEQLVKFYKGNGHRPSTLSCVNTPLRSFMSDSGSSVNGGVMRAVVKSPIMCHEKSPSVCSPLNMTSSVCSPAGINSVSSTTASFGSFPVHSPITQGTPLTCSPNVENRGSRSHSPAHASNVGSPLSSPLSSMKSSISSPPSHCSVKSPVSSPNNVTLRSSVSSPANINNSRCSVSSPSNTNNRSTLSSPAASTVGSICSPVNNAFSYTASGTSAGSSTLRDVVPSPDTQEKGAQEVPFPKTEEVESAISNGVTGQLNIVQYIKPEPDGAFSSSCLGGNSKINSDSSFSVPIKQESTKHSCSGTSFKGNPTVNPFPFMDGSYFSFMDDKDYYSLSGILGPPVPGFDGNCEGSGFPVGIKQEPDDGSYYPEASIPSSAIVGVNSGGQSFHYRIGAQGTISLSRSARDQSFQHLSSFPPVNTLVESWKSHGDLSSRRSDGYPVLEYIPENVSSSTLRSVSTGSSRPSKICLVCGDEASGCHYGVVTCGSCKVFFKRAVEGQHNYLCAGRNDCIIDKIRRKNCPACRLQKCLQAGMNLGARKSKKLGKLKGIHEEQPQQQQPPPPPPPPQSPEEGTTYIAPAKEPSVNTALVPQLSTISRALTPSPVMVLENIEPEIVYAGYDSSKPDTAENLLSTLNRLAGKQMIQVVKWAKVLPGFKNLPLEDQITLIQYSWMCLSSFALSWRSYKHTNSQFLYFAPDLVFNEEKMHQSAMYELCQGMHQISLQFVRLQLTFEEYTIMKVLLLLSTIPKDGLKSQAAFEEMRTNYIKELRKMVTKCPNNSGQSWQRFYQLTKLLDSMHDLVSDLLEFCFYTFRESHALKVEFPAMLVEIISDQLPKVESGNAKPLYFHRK
Put plainly: Binding affinity to mineralocorticoid receptor (unknown origin).

Data set [2] is described as follows: Half life in iv dosed rat. The note with it: in vivo. In kind it is ADME, organism-based.
A further data set deals with Lung. Put plainly: Drug uptake in intratracheally dosed rat lung after 4 hrs. The note with it: in vivo, inhaled_or_intranasal. Format: ADME, organism-based.
In the next data set the target is T2, Estrogen receptor (Homo sapiens, UniProt P03372).
T2 sequence (P03372 whole entry): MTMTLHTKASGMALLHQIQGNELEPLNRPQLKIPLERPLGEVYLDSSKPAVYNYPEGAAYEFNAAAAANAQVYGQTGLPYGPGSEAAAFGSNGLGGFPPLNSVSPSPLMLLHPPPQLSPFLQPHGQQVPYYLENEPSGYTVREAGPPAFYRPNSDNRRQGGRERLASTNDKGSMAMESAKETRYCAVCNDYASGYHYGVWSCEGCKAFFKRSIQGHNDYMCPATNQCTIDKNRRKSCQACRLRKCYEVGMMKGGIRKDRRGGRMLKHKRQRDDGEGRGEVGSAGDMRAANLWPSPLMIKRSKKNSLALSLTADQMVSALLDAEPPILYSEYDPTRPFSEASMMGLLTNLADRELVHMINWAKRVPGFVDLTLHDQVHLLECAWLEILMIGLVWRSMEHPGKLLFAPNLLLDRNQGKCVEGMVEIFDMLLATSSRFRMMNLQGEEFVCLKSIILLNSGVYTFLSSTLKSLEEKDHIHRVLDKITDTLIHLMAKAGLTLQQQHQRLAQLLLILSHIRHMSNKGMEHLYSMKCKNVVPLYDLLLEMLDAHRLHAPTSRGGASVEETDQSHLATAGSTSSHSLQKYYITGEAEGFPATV
Put plainly: Binding affinity to ER-alpha (unknown origin).

Data set [3] can be described thus: Thermodynamic solubility of the amorphous compound in 0.1 M phosphate buffer at pH 7.4 at 25 degC after 24 hrs. In kind it is physicochemical. The note with it: read-out: Therm_solubility.
For the next data set, the target named is T3, Glucocorticoid receptor (Rattus norvegicus, UniProt P06536).
T3 sequence (P06536 whole entry): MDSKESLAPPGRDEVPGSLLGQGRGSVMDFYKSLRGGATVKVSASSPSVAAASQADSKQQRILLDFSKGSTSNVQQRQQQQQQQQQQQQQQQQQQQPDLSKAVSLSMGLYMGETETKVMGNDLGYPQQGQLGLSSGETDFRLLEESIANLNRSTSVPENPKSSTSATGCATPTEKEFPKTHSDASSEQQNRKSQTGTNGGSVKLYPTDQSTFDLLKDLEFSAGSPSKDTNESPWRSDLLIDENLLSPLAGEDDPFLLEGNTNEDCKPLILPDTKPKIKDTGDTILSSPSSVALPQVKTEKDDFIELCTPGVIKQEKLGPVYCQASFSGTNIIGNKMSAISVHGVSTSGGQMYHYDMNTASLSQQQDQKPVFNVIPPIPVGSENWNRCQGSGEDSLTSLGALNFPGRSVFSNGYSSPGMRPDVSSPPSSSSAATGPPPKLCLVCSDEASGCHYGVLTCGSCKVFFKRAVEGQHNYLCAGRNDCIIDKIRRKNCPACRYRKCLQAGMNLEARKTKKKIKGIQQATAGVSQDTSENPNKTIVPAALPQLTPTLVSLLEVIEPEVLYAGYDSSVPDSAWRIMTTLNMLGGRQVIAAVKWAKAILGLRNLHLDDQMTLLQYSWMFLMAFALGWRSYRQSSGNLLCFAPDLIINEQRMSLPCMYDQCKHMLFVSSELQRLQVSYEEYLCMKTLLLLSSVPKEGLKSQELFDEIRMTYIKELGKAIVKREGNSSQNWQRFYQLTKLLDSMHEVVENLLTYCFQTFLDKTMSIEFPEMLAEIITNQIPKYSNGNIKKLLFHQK
Put plainly: Agonist activity at glucocorticoid receptor in rat PBMC assessed as inhibition of LPS-stimulated TNF-alpha release.

On to `Cc1nn(C2CCCC2)c(C)c1S(=O)(=O)N[C@@H](C)CNc1cccc2c1cnn2-c1ccc(F)nc1`, for which the results for the IC50 (in data set [1]; at Estrogen receptor; on Glucocorticoid receptor) were > 5000 nM, > 5000 nM and 4.5 nM, respectively. In data set [2], the half-life is 6.4 h. Further, the Drug uptake entry in the data set on Lung is listed as “Active”. Besides, in data set [3], the solubility thermodynamic at 24 h came to 22 µM (≈ 11.3 µg/mL).

One may read the IC50 as the point on the concentration scale where inhibition reaches its midpoint. For orientation: half-life means the time needed for the level to fall by half in the phase considered.
